ChEMBL document CHEMBL5236544, “Furazans in Medicinal Chemistry” (J Med Chem, 2021)
pEC50, pIC50: −log10 of the molar value.

Tests used:
CHO = assay: Antiproliferative activity against CHO cells assessed as reduction in cell proliferation by MTT assay; type: functional, cell-based; conditions: Cricetulus griseus
[1] = biological target: Cyclin-dependent kinase 2 (Homo sapiens, UniProt P24941); assay: Inhibition of CDK-2 (unknown origin)

Work on Nc1nonc1-n1nnc(-c2nnc(-c3ccncc3)[nH]2)c1CN1CCCCC1 yielded a pEC50 (CHO) of 5.73 and a pIC50 [1] of less than 3.60.
